The results in this text go back to PubChem BioAssay AID1259411 (Chemical Carcinogenesis Research Information System (CCRIS), 2018).

Active and inactive are the calls of the source. How the calls were made is not given here.

For this data set, the system named is rodent carcinogenicity bioassays, tumor incidence. The data set can be described thus: CCRIS carcinogenicity studies. The following applies: Dose: 0, Dose: 0. In outline: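 NCI-built, expert-reviewed records of carcinogenicity and related test outcomes (mutagenicity, tumor promotion/inhibition) compiled from published and report sources, historical span 1985-2011, not updated.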

Turning to `Nc1cccc2c(N)cccc12`, the carcinogen call is, setting by setting: (Species: MOUSE, Strain/Sex: B6C3F1/FEMALE, Route: ORAL, 0.1, 0.2% IN DIET FOR 103 WK (STUDY DURATION: 105-109 WK), 0.1, 0.2% IN DIET FOR 103 WK (STUDY DURATION: 105-109 WK), Tumor Site: Type of Lesion: LUNG: ALVEOLAR/BRONCHIOLAR ADENOMA OR CARCINOMA, LIVER: HEPATOCELLULAR CARCINOMA, HEPATOCELLULAR ADENOMA OR CARCINOMA, T, Tumor Site: Type of Lesion: LUNG: ALVEOLAR/BRONCHIOLAR ADENOMA OR CARCINOMA, LIVER: HEPATOCELLULAR CARCINOMA, HEPATOCELLULAR ADENOMA OR CARCINOMA, T) “active; positive”; (Species: MOUSE, Strain/Sex: B6C3F1/MALE, Route: ORAL, 0.1, 0.2% IN DIET FOR 103 WK (STUDY DURATION: 105-109 WK), 0.1, 0.2% IN DIET FOR 103 WK (STUDY DURATION: 105-109 WK), Tumor Site: Type of Lesion: THYROID GLAND: PAPILLARY ADENOMA OR FOLLICULAR CELL ADENOMA OR PAPILLARY CYSTADENOMA (NOS)) “active; positive”; (Species: RAT, Strain/Sex: F344/FEMALE, Route: ORAL, 0.05, 0.1% IN DIET FOR 103 WK (STUDY DURATION: 106-110 WK), 0.05, 0.1% IN DIET FOR 103 WK (STUDY DURATION: 106-110 WK), Tumor Site: Type of Lesion: CLITORAL GLAND: ADENOMA (NOS) OR CARCINOMA (NOS), UTERUS: ENDOMETRIAL STROMAL POLYP) “active; positive”; (Species: RAT, Strain/Sex: F344/MALE, Route: ORAL, 0.05, 0.1% IN DIET FOR 103 WK (STUDY DURATION: 106-109 WK), 0.05, 0.1% IN DIET FOR 103 WK (STUDY DURATION: 106-109 WK)) “inactive; negative”.
In the case of `CC1=C(C(=O)OCCN(Cc2ccccc2)c2ccccc2)C(c2cccc([N+](=O)[O-])c2)C(P2(=O)OCC(C)(C)CO2)=C(C)N1` (configuration not stated), the carcinogen call by setting is: (Species: MOUSE, Strain/Sex: B6C3F1/FEMALE, Route: ORAL, 500, 1600, 5000 PPM IN FEED FOR 104 WK (STUDY DURATION: 104 WK), 500, 1600, 5000 PPM IN FEED FOR 104 WK (STUDY DURATION: 104 WK)) “inactive; negative”; (Species: MOUSE, Strain/Sex: B6C3F1/MALE, Route: ORAL, 500, 1600, 5000 PPM IN FEED FOR 104 WK (STUDY DURATION: 104 WK), 500, 1600, 5000 PPM IN FEED FOR 104 WK (STUDY DURATION: 104 WK)) “inactive; negative”; (Species: RAT, Strain/Sex: F344/FEMALE, Route: ORAL, 400, 1200, 3600 PPM IN FEED FOR 104 WK (STUDY DURATION: 104 WK), 400, 1200, 3600 PPM IN FEED FOR 104 WK (STUDY DURATION: 104 WK)) “inactive; negative”; (Species: RAT, Strain/Sex: F344/MALE, Route: ORAL, 400, 1200, 3600 PPM IN FEED FOR 104 WK (STUDY DURATION: 104 WK), 400, 1200, 3600 PPM IN FEED FOR 104 WK (STUDY DURATION: 104 WK)) “inactive; negative”.
For `O[C@H]1[C@H]2O[C@H]2c2c(ccc3cc4ccc5ccccc5c4nc23)[C@@H]1O`, the carcinogen call is “inactive; negative” (Species: MOUSE, Strain/Sex: CD-1/FEMALE, Route: INTRAPERITONEAL, 28 NMOL (TOTAL DOSE) ADMINISTERED AS 1/7 OF DOSE WITHIN 24 HR AFTER BIRTH, 2/7 OF DOSE AT 8 D OLD, 4/7 OF DOSE AT 15); “inactive; negative” (Species: MOUSE, Strain/Sex: CD-1/FEMALE, Route: INTRAPERITONEAL, 175 NMOL (TOTAL DOSE) ADMINISTERED AS 1/7 OF DOSE WITHIN 24 HR AFTER BIRTH, 2/7 OF DOSE AT 8 D OLD, 4/7 OF DOSE AT 15); “inactive; negative” (Species: MOUSE, Strain/Sex: CD-1/MALE, Route: INTRAPERITONEAL, 28 NMOL (TOTAL DOSE) ADMINISTERED AS 1/7 OF DOSE WITHIN 24 HR AFTER BIRTH, 2/7 OF DOSE AT 8 D OLD, 4/7 OF DOSE AT 15); “inactive; negative” (Species: MOUSE, Strain/Sex: CD-1/MALE, Route: INTRAPERITONEAL, 175 NMOL (TOTAL DOSE) ADMINISTERED AS 1/7 OF DOSE WITHIN 24 HR AFTER BIRTH, 2/7 OF DOSE AT 8 D OLD, 4/7 OF DOSE AT 15).
For `NNC(=O)c1ccccc1`, the carcinogen call runs as follows: (Species: MOUSE, Strain/Sex: SWISS/FEMALE, Route: ORAL, 0.1% SOLUTION IN DRINKING WATER STARTING AT 6 WK OF AGE AND CONTINUED FOR LIFE FOR AN AVERAGE DAILY INTAKE OF 0, 0.57, 0.1% SOLUTION IN DRINKING WATER STARTING AT 6 WK OF AGE AND CONTINUED FOR LIFE FOR AN AVERAGE DAILY INTAKE OF 0, 0.57, Tumor Site: Type of Lesion: LUNG: ADENOMA, LUNG: ADENOMA AND ADENOCARCINOMA) “active; positive”; (Species: MOUSE, Strain/Sex: SWISS/MALE, Route: ORAL, 0.01% SOLUTION IN DRINKING WATER STARTING AT 6 WK OF AGE AND CONTINUED FOR LIFE FOR AN AVERAGE DAILY INTAKE OF 0, 0.8, 0.01% SOLUTION IN DRINKING WATER STARTING AT 6 WK OF AGE AND CONTINUED FOR LIFE FOR AN AVERAGE DAILY INTAKE OF 0, 0.8, Tumor Site: Type of Lesion: LUNG: ADENOMA, LUNG: ADENOMA AND ADENOCARCINOMA) “active; positive”.
As for `CNC(=O)Oc1cccc2c1OC(C)(C)O2`, the carcinogen call (Species: Mouse, Strain/Sex: CD-1/Female, Route: Oral, 50, 250, 1250 ppm in diet for 94 wks, 50, 250, 1250 ppm in diet for 94 wks) was “inactive; negative; purity 92.7%” and the carcinogen call (Species: Mouse, Strain/Sex: CD-1/Male, Route: Oral, 50, 250, 1250 ppm in diet for 89 wks, 50, 250, 1250 ppm in diet for 89 wks) was “inactive; negative; purity 92.7%”.
As for `O=C(O)CNCP(=O)(O)O`, the carcinogen call (Species: RAT, Strain/Sex: WISTAR/FEMALE, Route: ORAL, 300, 900, 2700 MG/L IN DRINKING WATER FOR 2 YR (STUDY DURATION: 2 YR), 300, 900, 2700 MG/L IN DRINKING WATER FOR 2 YR (STUDY DURATION: 2 YR)) was “inactive; negative”; the carcinogen call (Species: RAT, Strain/Sex: WISTAR/MALE, Route: ORAL, 300, 900, 2700 MG/L IN DRINKING WATER FOR 2 YR (STUDY DURATION: 2 YR), 300, 900, 2700 MG/L IN DRINKING WATER FOR 2 YR (STUDY DURATION: 2 YR)) was “inactive; negative”; the carcinogen call (Species: Rat, Strain/Sex: Sprague-Dawley/Female (50/Group), Route: Oral, 2000, 8000, 20,000 ppm of 96.5% glyphosate, isopropylamine salt in diet for 24 mo, study duration 24 mo, 2000, 8000, 20,000 ppm of 96.5% glyphosate, isopropylamine salt in diet for 24 mo, study duration 24 mo, Tumor Site: Type of Lesion: Adrenal cortex: carcinoma (3/50 in high dose group vs 0 in all other groups)) is “active; positive. (department of pesticides regulation reviewer describes as a possible”; the carcinogen call (Species: Rat, Strain/Sex: Sprague-Dawley/Male (50/Group), Route: Oral, 2000, 8000, 20,000 ppm of 96.5% glyphosate, isopropylamine salt in diet for 24 mo, study duration 24 mo, 2000, 8000, 20,000 ppm of 96.5% glyphosate, isopropylamine salt in diet for 24 mo, study duration 24 mo) was “inactive; negative”.
As to `CN1COCN(Cc2cnc(Cl)s2)/C1=N/[N+](=O)[O-]`, the carcinogen call runs as follows: (Species: MOUSE, Strain/Sex: TIF:MAGF/MALE, Route: DIET, 50, 200, 500, 1250, 2500, 5000 PPM IN DIET FOR UP TO 50 WKS (STUDY DURATION: 50 WKS), 50, 200, 500, 1250, 2500, 5000 PPM IN DIET FOR UP TO 50 WKS (STUDY DURATION: 50 WKS)) “inactive; negative for tumors but apoptosis and necrosis observed in liver at doses of 500”; (Species: RAT, Strain/Sex: TIF:RAIF/FEMALE, Route: ORAL (DIET), 1000, 3000 PPM FOR 1, 10, 20, 30, 40, OR 50 WKS, 1000, 3000 PPM FOR 1, 10, 20, 30, 40, OR 50 WKS) “inactive; negative”.
